Earlier results, collected in PMC10976394 (ACS Omega, 2024).

Conditions: human; cited from earlier work

SMILES: CC[C@@H]1CN(C(=O)NCC(F)(F)F)C[C@@H]1c1cnc2cnc3[nH]ccc3n12 [upadacitinib]
- clearance behavior under the arthritic condition: reduced the clearance behavior
